Experiments:
[1] = Body weight in the NASH-associated mouse liver cancer model; assay type: in vivo; conditions: 30 mg/kg QD from 19 to 30 weeks of age; weight at the age of 30 weeks
Description: FIG. 4 depicts the average body weight of the vehicle-treated group and Compound A-treated group at the age of 30 weeks. Data are represented as means ±SD.
(§1) This mouse model was developed by treating with DMBA, 7,12-dimethylbenz(a)anthracene, and by feeding a high fat diet (HFD) (NPL 15). […] In this experiment, Compound A 30 mg/kg QD was administered to the mice every day from 19 weeks of age to 30 weeks of age (FIG. 1). As a control, a separate group of mice were treated only with a vehicle and no active ingredient.

[2] = tested on: immune cells obtained from mouse livers; conditions: liver; 30 mg/kg QD from 19 to 30 weeks of age; vs vehicle
Description: FIG. 5A depicts flow cytometry analysis of immune cells between vehicle-treated mice or Compound A-treated mice. The percentages of total CD11c^hi MHC class II (MHC II)^hi, CD11b^+ CD11c^hi MHC II^hi, or CD103^+ CD11c^hi MHC II^hi cells were analyzed by flow cytometry. Data are represented as means ±SEM.
FIG. 6A depicts the percentages of CD3^+ CD4^+ Foxp3^+, CD3^+ CD4^+ Foxp3^−, CD3^+ CD8^+ cells analyzed by flow cytometry. The ratio of CD8^+ T cells to CD4^+ Foxp3^+ Tregs was calculated. Data are represented as means ±SEM. NS=not significant, *p<0.05, **p<0.01.
In FIG. 7A, the percentages of CD69^+ CD8^+ cells were analyzed by flow cytometry (*p<0.05, **p<0.01).
In FIG. 8A, the percentages of PD-1^+ CD8^+ cells were analyzed by flow cytometry (*p<0.05, **p<0.01).
Immune cells were obtained from mouse livers and were subjected to measuring cytokine production and flow cytometric analysis.
Data were analyzed by unpaired t-test with Welch correction (two-side) or Man-Whitney test (two-side). P values less than 0.05 were considered significant. “NS” indicates not significant.
The impact of EP4 blockage on the prevalence and activation status of immune cells was assessed.

[3] = tested on: obesity-induced NASH-associated liver cancer; assay: Obesity-induced (DMBA + high fat diet) NASH-associated mouse liver cancer model: liver tumor development; assay type: in vivo
Description: FIG. 1 depicts a mouse model timeline developed by treating with 7,12-dimethylbenz(a)anthracene (“DMBA”), and by feeding with a high fat diet (HFD). Compound A was administered to the mice every day from 19 weeks of age to 30 weeks of age and then euthanized (“Eut”).
FIG. 2 is macroscopic photographs of the liver isolated from the vehicle-treated mice (left side) and Compound A-treated mice (right side). […] Compound A or a vehicle (n=5, each) were treated to the mice every day from 19 weeks of age to 30 weeks of age. Arrowheads identify hepatocellular carcinomas (HCCs).
FIG. 3 depicts the average liver tumor numbers and the relative size distribution (classified as >6 mm, 2-6 mm, ≤2 mm). “NS” means not significant.
C57/BL6 mice were purchased from CLEA Japan Inc. The Tlr2^−/− mice (C57/BL6) were purchased from Oriental Yeast Co. Ltd.
Hematoxylin and eosin staining and immunofluorescence analysis were performed as previously described (Yoshimoto et al., Nature, 2013, 499:97-101).
P values less than 0.05 were considered significant. “NS” indicates not significant.
as §1

## C[C@H](NC(=O)c1cc(Cl)cnc1Oc1cccc(F)c1)c1ccc(C(=O)O)cc1 [Compound A, 4-[(1S)-1-({[5-chloro-2-(3-fluorophenoxy)pyridin-3-yl]carbonyl}amino)ethyl]-benzoic acid]
[1]
  body weight: did not influence
[2]
  frequency of CD4+Foxp3+ regulatory T cells (Tregs): significantly reduced
  frequency of CD8+ T cells: not changed
  frequency of CD11b+ DCs: not changed
  frequency of CD11chi MHC class IIhi dendritic cells (DCs): not changed
  number of CD8+ T cells expressing programmed cell death-1 (PD-1): significantly reduced
  number of CD8+ T cells expressing the activation marker CD69: significantly increased
  population of CD103+ DCs: increased
  ratio of CD8+ T cells to Tregs: increased
[3]; C57/BL6 mice, DMBA + HFD, 30 mg/kg QD every day from 19 to 30 weeks of age
  Hepatocellular carcinoma (HCC) development compared to vehicle-treated mice: strongly reduced
[3]; DMBA + HFD mice, treated every day from 19 to 30 weeks of age
  Tumor colony sized more than 6 mm: completely disappeared
[3]; DMBA + HFD mice, treated every day from 19 to 30 weeks of age, n=5
  tumor number in the liver compared to vehicle-treated mice: significantly inhibited
